Experimental data reported in patent US20250281480A1, “PHARMACEUTICAL DRY POWDER INHALATION FORMULATION” (Bayer Aktiengesellschaft, priority 2021, published 2025).

How the values were obtained:
[1] = XRPD
Protocol: There was no sample preparation.
3 g (5S)—{[2-(4-Carboxyphenyl)ethyl][2-(2-{[3-chloro-4′-(trifluoromethyl)biphenyl-4-yl]methoxy}-phenyl)ethyl]amino}-5,6,7,8-tetrahydroquinoline-2-carboxylic acid monohydrate I, (material prepared in analogy to example 3/4) were suspended in 20 mL of methanol. The suspension was stirred at ambient conditions for eight days. The residue was filtered and the resulting solid was dryed at ambient conditions. • water content: 4.8% water • Raman: see table 13, see FIG. 17 • IR: see table 14, see FIG. 24 • XRPD: see table 12, see FIG. 10

[2] = tested on: anesthetized PAH minipigs; experiment: PAH minipig, intratracheal application of dry powder formulations and of different hydrates (PAP, BP); format: in vivo, Göttingen Minipigs; details: 375 μg/kg i.t.
Protocol: Healthy Göttingen Minipigs® Ellegaard (Ellegaard, Denmark) of both sexes and having a weight of 2-6 kg were used. The animals were sedated by i.m. administration of about 25 mg/kg ketamine and about 10 mg/kg azaperone. Anaesthesia was initiated by i.v. administration of about 2 mg/kg ketamine and about 0.3 mg/kg midazolam. Maintenance of anaesthesia was by i.v. administration of about 7.5-30 mg/kg/h ketamine and about 1-4 mg/kg/h midazolam (rate of infusion 1-4 ml/kg/h) and about 150 μg/kg/h pancuronium bromide (for example Pancuronium-Actavis). After intubation, the animals were ventilated by the ventilator at a constant respiratory volume (10-12 ml/kg, 35 breaths/min; Avea®, Viasys Healthcare, USA, or Engström Carestation, GE Healthcare, Freiburg, Germany) such that an end-tidal CO2 concentration of about 5% was achieved. Ventilation was performed with room air, enriched with about 40% oxygen (normoxia). For the measurement of the haemodynamic parameters such as pulmonary arterial pressure (PAP), blood pressure (BP) and heart rate (HR), catheters were inserted into the carotid artery to measure the blood pressure, and a Swan-Ganz® catheter was introduced in a flow-directed manner via the jugular vein into the pulmonary artery. The haemodynamic signals were recorded and evaluated by means of pressure transducers (Combitransducer, B. Braun, Melsungen, Germany)/amplifiers and Ponemah® as data acquisition software.
About 0.3-0.75 μg/kg/min of 9,11-didesoxy-9α,11α-epoxymethanoprostaglandine F2α (U-44069; Sigma, cat. no. D0400, or Cayman Chemical Company, cat. no. 16440), dissolved in physiological saline, were infused to achieve an increase of the mean pulmonary arterial pressure to values of over 25 mmHg.
After characterization of the effects of comparative example 11 after nebulization of compound solutions, in a further step the effects of crystalline forms of comparative example 11, e.g. sesquihydrate, e.g. example 6e on PAP and BP after inhaled application of different dry powder lactose formulations (table 52) were studied in anesthetized PAH minipigs.
As reference pure Lactose vehicle was applied in the beginning of each experiment.

[3] = tested on: cGMP; experiment: Phase I, healthy male subjects, inhaled once daily for 7 days: cGMP in blood samples; format: in vivo, human
Protocol: (§1) Healthy White male subjects, aged 18 to 45 years and with a body mass index (BMI) above/equal 18.5 and below/equal 29.9 kg/m2 were treated in a clinical pharmacological phase I study on seven days with inhaled once daily doses of 480 or 1000 or 2000 μg (2 capsules of 1000 μg) (nominal dose) of dry powder formulations of example 2 or Placebo. The subjects inhaled the drug powder from capsules (see under C, e.g. tables 22 and 23) inserted into a handheld inhalation device by one deep inhalative breath. The dry powder formulation of the drug is dispersed into the airstream and fine particles are transported into the deep parts of the lung where it is intended to cause a vasodilation of the blood vessels in PH patients for a substantial reduction of increased blood pressure in the central pulmonary blood vessels in PAH patients or other subtypes of PH. This effect cannot be shown in subjects with healthy lungs. In addition inhaled drug causes a dilation of the bronchial airways and thus also improves disease states of lung diseases in PH patients with pathological bronchoconstriction. This effect was measured via bodyplethysmography as reduction of Specific Airway Resistance in healthy subjects. After the deep inhalative breath the subjects hold breath for 2 seconds, so that the dry powder drug condenses from the airstream onto the surface of the deeper lung areas where it is deposited close to its site of intended pharmacological action. The drug dissolutes over the day and equilibrates the lung via lining fluid.
Drug activity in healthy men was controlled in the healthy subjects by analysing blood samples for cGMP, the immediate product of sGC pharmacological activation prior after the first and after the last drug inhalation of the 7 days treatment in comparison to measurements on the pretreatment day for all doses.

[4] = tested on: healthy male subjects; experiment: Phase I, healthy male subjects, 7 days: bodyplethysmography, total specific airway resistance (sRaw); format: in vivo, human
Protocol: as §1, with “After the deep inhalative breath the subjects hold breath for 2 seconds, so that the dry powder drug condenses from the airstream onto the surface of the deeper lung areas where it is deposited close to its site of intended pharmacological action. The drug dissolutes over the day and equilibrates the lung via lining fluid.” left out

[5] = Phase I, healthy male subjects, 7 days: plasma concentrations over time; format: in vivo, human; details: after first inhalation, all doses
Protocol: as §1, with “After the deep inhalative breath the subjects hold breath for 2 seconds, so that the dry powder drug condenses from the airstream onto the surface of the deeper lung areas where it is deposited close to its site of intended pharmacological action. The drug dissolutes over the day and equilibrates the lung via lining fluid.” left out

[6] = Storage stability of pseudopolymorphic forms (XRPD); format: physicochemical
[7] = Micronization of monohydrate II and monohydrate I (spiral jet mill): solid form after micronization; format: physicochemical
Excerpt: Generally no amorphization even partial nor form conversion should happen during the necessary micronization step.
The corresponding batches (examples 8a-8d) were micronized using a 50 mm spiral jet mill and pressurized nitrogen with the following parameters (see table 16b).
The corresponding batches were micronized using a 100 mm spiral jet mill and pressurized nitrogen with the following parameters (see table 16c).

## O.O.O=C(O)c1ccc(CCN(CCc2ccccc2OCc2ccc(-c3ccc(C(F)(F)F)cc3)cc2Cl)[C@H]2CCCc3nc(C(=O)O)ccc32)cc1 [Example 6f]
[1]
  solid form after drying: went amorphous

## O=C(O)c1ccc(CCN(CCc2ccccc2OCc2ccc(-c3ccc(C(F)(F)F)cc3)cc2Cl)[C@H]2CCCc3nc(C(=O)O)ccc32)cc1 [Example 2, (5S)—{[2-(4-Carboxyphenyl)ethyl][2-(2-{[3-chloro-4′-(trifluoromethyl)biphenyl-4-yl]methoxy}phenyl)-ethyl]amino}-5,6,7,8-tetrahydroquinoline-2-carboxylic Acid as Monohydrate II]
[2]; micronized hydrates
  efficacy with regard to PAP reduction and systemic BP reduction: comparable efficacy
[2]; time 160, per animal
  PAP(mean): 27.8 mmHg
[3]; 480 μg inhaled once daily, 7 D 15 H 00 M
  cGMP over time (means): 8.56 ± 2.80 nmol/L
[3]; 480 μg inhaled once daily, 8 D 00 H 00 M
  cGMP over time (means): 7.20 ± 3.23 nmol/L
[3]; 480 μg inhaled once daily, 8 D 12 H 00 M
  cGMP over time (means): 6.20 ± 2.00 nmol/L
[3]; 480 μg inhaled once daily, 9 D 00 H 00 M
  cGMP over time (means): 5.64 ± 2.53 nmol/L
[3]; 480 μg inhaled once daily, −0 D 09 H 00 M
  cGMP over time (means): 5.60 ± 1.08 nmol/L
[3]; 480 μg inhaled once daily, −1 D 02 H 00 M
  cGMP over time (means): 5.40 ± 1.41 nmol/L
[3]; 1000 μg inhaled once daily, 5 D 00 H 00 M
  cGMP over time (means): 8.50 ± 2.13 nmol/L
[3]; 1000 μg inhaled once daily, −0 D 20 H 00 M
  cGMP over time (means): 4.78 ± 1.37 nmol/L
[3]; 1000 μg inhaled once daily, −0 D 22 H 00 M
  cGMP over time (means): 5.10 ± 1.46 nmol/L
[3]; 2000 μg inhaled once daily, 2 D 00 H 00 M
  cGMP over time (means): 6.40 ± 2.09 nmol/L
[3]; 2000 μg inhaled once daily, 3 D 00 H 00 M
  cGMP over time (means): 10.00 ± 3.51 nmol/L
[3]; 2000 μg inhaled once daily, 8 D 00 H 00 M
  cGMP over time (means): 16.00 ± 5.77 nmol/L
[3]; 2000 μg inhaled once daily, 9 D 12 H 00 M
  cGMP over time (means): 9.40 ± 3.10 nmol/L
[3]; 2000 μg inhaled once daily, −0 D 18 H 00 M
  cGMP over time (means): 4.32 ± 1.33 nmol/L
[4]; 480 μg inhaled once daily, 0 D 06 H 00 M
  total specific airway resistance (means): 0.800 ± 0.187 kPa/sec
[4]; 2000 μg inhaled once daily, 7 D 06 H 00 M
  total specific airway resistance (means): 0.730 ± 0.151 kPa/sec
[5]
  measurable plasma concentration persisted for: 48 h
[6]; example 7a: brown glass snap on closure, 25° C., 60% relative humidity
  Result (solid form after storage): monohydrate II
[6]; example 7b: polyethylene, 25° C., 60% relative humidity
  Result (solid form after storage): monohydrate I
[6]; example 7c: polyethylene, 40° C., 75% relative humidity
  Result (solid form after storage): monohydrate I
[6]; example 7d: brown glass closed with paper filter disc, 40° C., 75% relative humidity
  Result (solid form after storage): monohydrate I
[7]; example 2 batch
  XRPD after micronization: monohydrate II with partial amorphization
[7]; example 8a: VA jet mill (diameter 50 mm), 25° C.
  solid form after micronization: transformation from monohydrate II to monohydrate I
[7]; example 8b, several conditions, even low stress
  solid form after micronization: partial amorphization
